Results as given in the supplement of paper PMC8671470.
Counter-ions that a name gives are not always drawn.

tested on: HL-60; test: cell viability (% survival relative to DMSO control); higher = less cytotoxic; conditions: drug1 concentration 1000 nM; drug2 concentration 10 nM; 72 h
Method: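 8x8 drug-combination matrices (0-5000 nM; rosiglitazone and lestaurtinib 0-1000 nM) were run in HL-60 cells for 72 h with a CellTiter-Glo read-out. Survival is normalised to DMSO and 10 µM bortezomib and clipped at 100%. Bliss synergy was analysed in SynergyFinder.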

SMILES	cell viability
CCn1c(=Cc2cccc[n+]2CC)sc(=C2Sc3ccccc3N2C)c1=O [MKT 077] + CN(C)CCNC(=O)c1cccn2c(=O)c3cc4ccccc4cc3nc12 [Bmh-21]	> 100%
CN(CCOc1ccc(Cc2sc(O)nc2O)cc1)c1ccccn1 [Rosiglitazone] + CC(C)(Cc1ccccc1)NCC(O)c1ccc(O)c(NS(C)(=O)=O)c1 [Zinterol hydrochloride]	> 100%
CN(CCOc1ccc(Cc2sc(O)nc2O)cc1)c1ccccn1 [Rosiglitazone] + c1cc(-c2cnn3cc(-c4ccc(OCCN5CCCCC5)cc4)cnc23)ccn1 [Dorsomorphin]	> 100%

same assay, conditions: drug1 concentration 1000 nM; drug2 concentration 50 nM; 72 h

SMILES	cell viability
O=C(O)CC[N+](=O)[O-] [3-nitropropionic acid] + CCn1c(=Cc2cccc[n+]2CC)sc(=C2Sc3ccccc3N2C)c1=O [MKT 077]	> 100%
CCn1c(=Cc2cccc[n+]2CC)sc(=C2Sc3ccccc3N2C)c1=O [MKT 077] + CN(C)CCNC(=O)c1cccn2c(=O)c3cc4ccccc4cc3nc12 [Bmh-21]	> 100%
CN(CCOc1ccc(Cc2sc(O)nc2O)cc1)c1ccccn1 [Rosiglitazone] + CC(C)(Cc1ccccc1)NCC(O)c1ccc(O)c(NS(C)(=O)=O)c1 [Zinterol hydrochloride]	92.8%
CN(CCOc1ccc(Cc2sc(O)nc2O)cc1)c1ccccn1 [Rosiglitazone] + c1cc(-c2cnn3cc(-c4ccc(OCCN5CCCCC5)cc4)cnc23)ccn1 [Dorsomorphin]	> 100%

same assay, conditions: drug1 concentration 1000 nM; drug2 concentration 100 nM; 72 h

SMILES	cell viability
O=C(O)CC[N+](=O)[O-] [3-nitropropionic acid] + CCn1c(=Cc2cccc[n+]2CC)sc(=C2Sc3ccccc3N2C)c1=O [MKT 077]	50.3%
CCn1c(=Cc2cccc[n+]2CC)sc(=C2Sc3ccccc3N2C)c1=O [MKT 077] + CN(C)CCNC(=O)c1cccn2c(=O)c3cc4ccccc4cc3nc12 [Bmh-21]	> 100%
CN(CCOc1ccc(Cc2sc(O)nc2O)cc1)c1ccccn1 [Rosiglitazone] + CC(C)(Cc1ccccc1)NCC(O)c1ccc(O)c(NS(C)(=O)=O)c1 [Zinterol hydrochloride]	> 100%
CN(CCOc1ccc(Cc2sc(O)nc2O)cc1)c1ccccn1 [Rosiglitazone] + c1cc(-c2cnn3cc(-c4ccc(OCCN5CCCCC5)cc4)cnc23)ccn1 [Dorsomorphin]	> 100%

same assay, conditions: drug1 concentration 1000 nM; drug2 concentration 500 nM; 72 h

SMILES	cell viability
O=C(O)CC[N+](=O)[O-] [3-nitropropionic acid] + CCn1c(=Cc2cccc[n+]2CC)sc(=C2Sc3ccccc3N2C)c1=O [MKT 077]	84.7%
CCn1c(=Cc2cccc[n+]2CC)sc(=C2Sc3ccccc3N2C)c1=O [MKT 077] + CN(C)CCNC(=O)c1cccn2c(=O)c3cc4ccccc4cc3nc12 [Bmh-21]	41.3%
CN(CCOc1ccc(Cc2sc(O)nc2O)cc1)c1ccccn1 [Rosiglitazone] + CC(C)(Cc1ccccc1)NCC(O)c1ccc(O)c(NS(C)(=O)=O)c1 [Zinterol hydrochloride]	80.8%
CN(CCOc1ccc(Cc2sc(O)nc2O)cc1)c1ccccn1 [Rosiglitazone] + c1cc(-c2cnn3cc(-c4ccc(OCCN5CCCCC5)cc4)cnc23)ccn1 [Dorsomorphin]	> 100%

same assay, conditions: drug1 concentration 1000 nM; drug2 concentration 1000 nM; 72 h

SMILES	cell viability
O=C(O)CC[N+](=O)[O-] [3-nitropropionic acid] + CCn1c(=Cc2cccc[n+]2CC)sc(=C2Sc3ccccc3N2C)c1=O [MKT 077]	> 100%
CCn1c(=Cc2cccc[n+]2CC)sc(=C2Sc3ccccc3N2C)c1=O [MKT 077] + CN(C)CCNC(=O)c1cccn2c(=O)c3cc4ccccc4cc3nc12 [Bmh-21]	34.4%
CN(CCOc1ccc(Cc2sc(O)nc2O)cc1)c1ccccn1 [Rosiglitazone] + CC(C)(Cc1ccccc1)NCC(O)c1ccc(O)c(NS(C)(=O)=O)c1 [Zinterol hydrochloride]	> 100%
CN(CCOc1ccc(Cc2sc(O)nc2O)cc1)c1ccccn1 [Rosiglitazone] + c1cc(-c2cnn3cc(-c4ccc(OCCN5CCCCC5)cc4)cnc23)ccn1 [Dorsomorphin]	96.3%

same assay, conditions: drug1 concentration 1000 nM; drug2 concentration 5000 nM; 72 h

SMILES	cell viability
O=C(O)CC[N+](=O)[O-] [3-nitropropionic acid] + CCn1c(=Cc2cccc[n+]2CC)sc(=C2Sc3ccccc3N2C)c1=O [MKT 077]	> 100%
CCn1c(=Cc2cccc[n+]2CC)sc(=C2Sc3ccccc3N2C)c1=O [MKT 077] + CN(C)CCNC(=O)c1cccn2c(=O)c3cc4ccccc4cc3nc12 [Bmh-21]	7.94%
CN(CCOc1ccc(Cc2sc(O)nc2O)cc1)c1ccccn1 [Rosiglitazone] + CC(C)(Cc1ccccc1)NCC(O)c1ccc(O)c(NS(C)(=O)=O)c1 [Zinterol hydrochloride]	97.7%
CN(CCOc1ccc(Cc2sc(O)nc2O)cc1)c1ccccn1 [Rosiglitazone] + c1cc(-c2cnn3cc(-c4ccc(OCCN5CCCCC5)cc4)cnc23)ccn1 [Dorsomorphin]	90.1%

same assay, conditions: drug1 concentration 5000 nM; drug2 concentration 5 nM; 72 h

SMILES	cell viability
O=C(O)CC[N+](=O)[O-] [3-nitropropionic acid] + CCn1c(=Cc2cccc[n+]2CC)sc(=C2Sc3ccccc3N2C)c1=O [MKT 077]	88.8%
CCn1c(=Cc2cccc[n+]2CC)sc(=C2Sc3ccccc3N2C)c1=O [MKT 077] + CN(C)CCNC(=O)c1cccn2c(=O)c3cc4ccccc4cc3nc12 [Bmh-21]	82%

same assay, conditions: drug1 concentration 5000 nM; drug2 concentration 10 nM; 72 h

SMILES	cell viability
O=C(O)CC[N+](=O)[O-] [3-nitropropionic acid] + CCn1c(=Cc2cccc[n+]2CC)sc(=C2Sc3ccccc3N2C)c1=O [MKT 077]	> 100%
CCn1c(=Cc2cccc[n+]2CC)sc(=C2Sc3ccccc3N2C)c1=O [MKT 077] + CN(C)CCNC(=O)c1cccn2c(=O)c3cc4ccccc4cc3nc12 [Bmh-21]	> 100%

same assay, conditions: drug1 concentration 5000 nM; drug2 concentration 50 nM; 72 h

SMILES	cell viability
O=C(O)CC[N+](=O)[O-] [3-nitropropionic acid] + CCn1c(=Cc2cccc[n+]2CC)sc(=C2Sc3ccccc3N2C)c1=O [MKT 077]	> 100%
CCn1c(=Cc2cccc[n+]2CC)sc(=C2Sc3ccccc3N2C)c1=O [MKT 077] + CN(C)CCNC(=O)c1cccn2c(=O)c3cc4ccccc4cc3nc12 [Bmh-21]	> 100%

same assay, conditions: drug1 concentration 5000 nM; drug2 concentration 100 nM; 72 h

SMILES	cell viability
O=C(O)CC[N+](=O)[O-] [3-nitropropionic acid] + CCn1c(=Cc2cccc[n+]2CC)sc(=C2Sc3ccccc3N2C)c1=O [MKT 077]	> 100%
CCn1c(=Cc2cccc[n+]2CC)sc(=C2Sc3ccccc3N2C)c1=O [MKT 077] + CN(C)CCNC(=O)c1cccn2c(=O)c3cc4ccccc4cc3nc12 [Bmh-21]	> 100%

same assay, conditions: drug1 concentration 5000 nM; drug2 concentration 500 nM; 72 h

SMILES	cell viability
O=C(O)CC[N+](=O)[O-] [3-nitropropionic acid] + CCn1c(=Cc2cccc[n+]2CC)sc(=C2Sc3ccccc3N2C)c1=O [MKT 077]	86.6%
CCn1c(=Cc2cccc[n+]2CC)sc(=C2Sc3ccccc3N2C)c1=O [MKT 077] + CN(C)CCNC(=O)c1cccn2c(=O)c3cc4ccccc4cc3nc12 [Bmh-21]	84.4%

same assay, conditions: drug1 concentration 5000 nM; drug2 concentration 1000 nM; 72 h

SMILES	cell viability
O=C(O)CC[N+](=O)[O-] [3-nitropropionic acid] + CCn1c(=Cc2cccc[n+]2CC)sc(=C2Sc3ccccc3N2C)c1=O [MKT 077]	67.3%
CCn1c(=Cc2cccc[n+]2CC)sc(=C2Sc3ccccc3N2C)c1=O [MKT 077] + CN(C)CCNC(=O)c1cccn2c(=O)c3cc4ccccc4cc3nc12 [Bmh-21]	54.3%

same assay, conditions: drug1 concentration 5000 nM; drug2 concentration 5000 nM; 72 h

SMILES	cell viability
O=C(O)CC[N+](=O)[O-] [3-nitropropionic acid] + CCn1c(=Cc2cccc[n+]2CC)sc(=C2Sc3ccccc3N2C)c1=O [MKT 077]	99.6%
CCn1c(=Cc2cccc[n+]2CC)sc(=C2Sc3ccccc3N2C)c1=O [MKT 077] + CN(C)CCNC(=O)c1cccn2c(=O)c3cc4ccccc4cc3nc12 [Bmh-21]	52%
